Laboratory results as given in patent US12606529B2, “Sulfur and amide tropolone inhibitors of nucleotidyl transferases and uses therefor” (Saint Louis University, priority 2019, dated 2026).
Converted amounts (≈) assume the structure as drawn. Like-named read-outs stand apart in the source and are kept apart here.

How the values were obtained:
HSV-1 = assay: Anti-HSV-1 replication assay (Vero cells, plaque titer); assay type: cell-based, herpes simplex virus 1; details: for log reduction at 0.33 µM / log reduction at 1 µM / log reduction at 5 µM: Human alphaherpesvirus 1, Vero, values separated by / are repeats; for log reduction at 0.33 µM: compound at 0.33 μM, read-out: HSV-1 suppression 0.33 μM; for log reduction at 1 µM: compound at 1 μM; for log reduction at 5 µM: compound at 5 μM
HBV replication = HBV replication inhibition in HepDES19 cells (strand-preferential qPCR); details: for EC50: Hepatitis B virus
Protocol: Cells used for toxicity and HBV studies.
HBV replication inhibition studies. HepDES19 cells were seeded in 96-well plates at 4×10^4 cells per well in the absence of tetracycline. Test compounds in a final DMSO concentration of 1% were applied to cells 48 hours after induction of HBV replication and cells were incubated with compounds for 72 hours. Cells were washed in 200 μL of phosphate buffered saline (PBS) and lysed in 150 μL of core lysis buffer (10 mM Tris pH 7.4, 1% Tween20, 150 mM NaCl). Cells were incubated at room temperate on an orbital shaker at 350 rpm for 40 minutes. Cell lysate was transferred to a 96 well polymerase chain reaction (PCR) plate and centrifuged at 3300×g for 5 minutes. The supernatant (50 μL) from the cell lysate was transferred to a 96-well PCR plate and mixed with 20 units of micrococcal nuclease and 100 μM CaCl2. The lysate was incubated for 1 hour at 37° C., and then the nuclease was inactivated at 70° C. for ten minutes. Qiagen protease (0.005 Anson units) was added to the lysate and the mixture was incubated overnight. Qiagen protease was then inactivated at 95° C. for ten minutes.
The crude lysate was used as the template for strand-preferential quantitative polymerase chain reaction (q-PCR) analysis. Quantitative PCR was performed with 40 cycles of 95° C. for 15 s and 60° C. for 1 minute employing the Kappa Probe Force universal PCR master mix.

[1] = system: C. neoformans var. grubii, KN99; assay: C. neoformans growth inhibition assay (limiting dilution); assay type: cell-based, Cryptococcus neoformans; details: Cryptococcus neoformans
Protocol: Cell types used for C. neoformans studies. All inhibition assays were performed with C. neoformans var. grubii, KN99 (serotype A, MAT). Two clinical strains of C. neoformans var. grubii, serotype A, were provided by Tamara Doering and Andre Spec. […] Cells were diluted to OD650 0.001 in YNB-02 02 (0.67% yeast nitrogen base, 0.2% dextrose, pH 7.0 with 50 mM MOPs)+1% DMSO prior to addition to the plates for the inhibition assays.
C. neoformans growth inhibition assays. Compounds were tested in a limiting dilution assay with a starting optical density (at 650 nm) of 0.001 in YNB-02 plus 1% DMSO. Cells plus compound were incubated in 96-well clear round bottom plates covered with a Breath-easy® membrane without shaking for 48 hours at 35° C. Before measuring cell density, plates were shaken on a microtiter plate shaker at 900 rpm for 3 minutes to resuspend cells and optical density was measured at 650 nm. […] Each assay was done in triplicate and all values are the average of two or more independent assays. The data are presented as the average cell density as a percent of DMSO-only treated cells. MICs are reported as the minimal concentration needed to inhibit 80% of C. neoformans growth relative to vehicle-treated controls.

human RNaseH1 = molecular target: T1, human RNaseH1 (Homo sapiens, UniProt O60930); assay: Biochemical inhibition of human RNaseH1 activity
T1 sequence (O60930 1-286): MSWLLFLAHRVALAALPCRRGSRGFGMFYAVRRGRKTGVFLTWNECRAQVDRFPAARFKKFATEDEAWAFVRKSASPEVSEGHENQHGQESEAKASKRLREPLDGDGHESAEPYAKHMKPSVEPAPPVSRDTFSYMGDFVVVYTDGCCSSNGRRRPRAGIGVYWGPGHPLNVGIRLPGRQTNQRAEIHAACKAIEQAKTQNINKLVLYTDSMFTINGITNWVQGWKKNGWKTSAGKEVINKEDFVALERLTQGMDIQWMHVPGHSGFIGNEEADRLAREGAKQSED
Protocol: Biochemical inhibition of human RNaseH1 activity. Quantitative inhibition of the human RNaseH1 in the biochemical assays was assessed using a molecular beacon assay as described previously (Edwards et al., 2017). Recombinant human RNaseH 1 (0.3 μg) was incubated with 100 nM RNA:DNA substrate, 50 mM HEPES pH 8.0, 100 mM NaCl, 2 mM Tris(2-carboxyethyl)phosphine hydrochloride (TCEP), 0.05% Tween20, 5 units of RNaseOut, test compounds (0 to 500 μM), and 5% DMSO in a 100 μL reaction volume. The substrate was formed by annealing a complementary RNA oligonucleotide to a hairpin DNA oligonucleotide to hold the hairpin DNA oligonucleotide in an open conformation. The DNA oligonucleotide has a 5′ fluorescein reporter and a 3′ black hole quencher. When the RNA is degraded from the substrate the DNA oligonucleotide closes to form a hairpin structure, decreasing in signal intensity. Reactions were initiated with 5 mM MgCl2 and fluorescence was read using a Synergy HTS multi-mode plate reader at 37° C. Alternatively, the HBV RNaseH version used was MBP-HRHgtCΔ5, a genotype C isolate which lacks the C-terminal 35 amino acids of the HBV RNaseH domain that are predicted to be unstructured. Quantitative inhibition of the human RNaseH1 in biochemical assays was assessed using a FRET-based RNaseH assay under conditions previously reported for an RNaseH molecular beacon assay (Edwards et al., 2017). […] Cleavage of the RNA strand released the fluorescein from quenching, increasing fluorescence. Reactions were monitored for 90 min at 37° C. in a plate reader and initial reaction rates were calculated. Reactions contained escalating concentrations of the compounds.

in vitro = details: human, HepDES19 cells
Protocol: Cells used for toxicity and HBV studies. […] Cells were maintained in Dulbecco's modified Eagle's medium (DMEM)/F12 media supplemented with 10% fetal bovine serum (FBS) and 1% penicillin/streptomycin (P/S) with 1 μg/mL tetracycline. Synchronized expression of HBV pgRNA was induced by removing tetracycline from the culture medium.
Cytotoxicity Assays. Qualitative assessments of cytotoxicity were done visually by inspecting the cells in the primary screening assays. […] The next day the compounds were added at 0.78 to 100 μM in a final concentration of 1% (v/v) DMSO, and the cells were incubated for 24 hours under conditions identical to those employed for the viral replication inhibition assays. Mitochondrial toxicity was measured by incubating the cells with 0.25 mg/mL thiazolyl blue tetrazolium bromide (MTT, SigmaAldrich Chemical Co.), the cultures were incubated for 60 mM, metabolites were solubilized in acidic isopropanol, and absorbance was read at 570 nm. CC50 values were calculated by non-linear curve fitting using GraphPad Prism using the three-parameter variable-response log(inhibitor)-versus-response algorithm with the bottom value set to zero.

[2] = Table 3 sulfur compounds, read-out: HSV-1 suppression 1 μM
[3] = Table 3 sulfur compounds, read-out: HSV-1 suppression 5 μM
[4] = HepDES19, read-out: HBV EC50, Table 3 sulfur compounds, HBV replication, HepDES19 cells
[5] = 48 h, Table 3 sulfur compounds, 48 h, 35° C., read-out: C. neoformans MIC80
[6] = read-out: MIC80 against C. neoformans
[7] = CC50, Table 3 sulfur compounds, MTT
[8] = Table 2 amides, read-out: HSV-1 suppression 5 μM
[9] = 48 h, Table 2 amides, 48 h, 35° C., tested 0.19 to 50 μM, read-out: C. neoformans MIC80
[10] = Table 2 amides, read-out: HuRH1 IC50

| Compound | log reduction at 1 µM (HSV-1; [2]) | log reduction at 5 µM (HSV-1; [3]) | EC50 (HBV replication; [4]) [µM] | MIC80 [1, 5] [µM] | CC50 at 24 h (in vitro; [7]) [µM] | other results |
| --- | --- | --- | --- | --- | --- | --- |
| O=c1c(O)cccc(SCc2ccccc2)c1O [compound 702] | 3.23 | 5.79 | 25 | 0.56 (≈ 0.146 µg/mL) | – | log reduction at 0.33 µM (HSV-1; Table 3 sulfur compounds): 0.13; MIC80 [1, 6]: ≤ 1 µM; IC50 (human RNaseH1; Table 3 sulfur compounds, read-out: Hu RNaseH IC50): 31.7 µM |
| O=c1c(O)c(S(=O)(=O)Cc2ccccc2)ccc(S(=O)(=O)Cc2ccccc2)c1O [compound 706] | – | 0.59 | 51.4 | 49 (≈ 21.9 µg/mL) | 73 | – |
| Cc1cc(O)c(=O)c(O)cc1S(=O)(=O)c1ccccc1 [compound 336] | – | 1.57 | 0.68 | 50 (≈ 14.6 µg/mL) | – | log reduction at 0.33 µM (HSV-1; Table 3 sulfur compounds): 0.13 |
| CCCCCCS(=O)(=O)c1ccc(S(=O)(=O)CCCCCC)c(O)c(=O)c1O [compound 700] | 0.57 | 2.01 | 49.8 | 50 (≈ 21.7 µg/mL) | 46 | log reduction at 0.33 µM (HSV-1; Table 3 sulfur compounds): 0.49; Inhibition of HSV-1 (HSV-1; in words): showed inhibition of HSV-1 |
| CC(C)S(=O)(=O)c1ccc(S(=O)(=O)C(C)C)c(O)c(=O)c1O [compound 538] | 0.74 | 0.21 | 50 | 50 (≈ 17.5 µg/mL) | 100 | CC50 at 24 h (in vitro; CC50): 100 µM |
| CS(=O)(=O)c1ccc(O)c(=O)c(O)c1 [compound 382] | – | – | 0.58 | 50 (≈ 10.8 µg/mL) | 79.5 | Therapeutic index (CC50/EC50) for HBV (TI, SI) (HBV replication): 136 |
| CCCCCCSc1ccc(SCCCCCC)c(O)c(=O)c1O [compound 841] | – | – | 10.7 | – | 7.8 | log reduction at 1 µM (HSV-1; read-out: HSV-1 suppression 1 μM, Table 3 sulfur compounds): 4.99; log reduction at 5 µM (HSV-1; read-out: HSV-1 suppression 5 μM, Table 3 sulfur compounds): 4.77; MIC80 ([1]; 48 h, read-out: C. neoformans MIC80, Table 3 sulfur compounds, 48 h, 35° C.): 5 µM (≈ 1.85 µg/mL) |
| Cc1ccc(S(=O)(=O)c2cc(O)c(=O)c(O)cc2C)cc1 [compound 367] | 0 | 0.49 | 16.1 | 24 (≈ 7.35 µg/mL) | 23 | – |
| CCCCS(=O)(=O)c1ccc(S(=O)(=O)CCCC)c(O)c(=O)c1O [compound 536] | 0.09 | 0.35 | 50 | 50 (≈ 18.9 µg/mL) | 100 | CC50 at 24 h (in vitro; CC50): 100 µM |
| CC(C)Sc1ccc(SC(C)C)c(O)c(=O)c1O [compound 696] | 0.08 | 5.82 | 12.7 | 1.4 (≈ 0.401 µg/mL) | 9.3 | log reduction at 0.33 µM (HSV-1; Table 3 sulfur compounds): -0.06 |
| Cc1cc(O)c(=O)c(O)cc1S(=O)(=O)c1ccc(-c2ccccc2)cc1 [compound 337] | – | – | 5.73 | 50 (≈ 18.4 µg/mL) | 47.4 | log reduction at 0.33 µM (HSV-1; Table 3 sulfur compounds): 0.28 |
| CCCCS(=O)(=O)c1cccc(O)c(=O)c1O [compound 535] | 0.07 | – | 2.02 | 50 (≈ 12.9 µg/mL) | 19.2 | – |
| CC(C)S(=O)(=O)c1cccc(O)c(=O)c1O [compound 537] | 0.25 | – | 0.51 | 50 (≈ 12.2 µg/mL) | 20.6 | Therapeutic index (CC50/EC50) for HBV (TI, SI) (HBV replication): 41 |
| CSc1cccc(O)c(=O)c1O [compound 385] | – | 2.5 | 4.4 | 24 (≈ 4.42 µg/mL) | 100 | CC50 at 24 h (in vitro; CC50): 100 µM |
| CCCCSc1cccc(O)c(=O)c1O [compound 693] | 0.25 | 5.64 | 47.3 | 0.9 (≈ 0.204 µg/mL) | 13.5 | MIC80 [1, 6]: ≤ 1 µM |
| CC(C)Sc1cccc(O)c(=O)c1O [compound 695] | -0.23 | 2.28 | 26.8 | 1.6 (≈ 0.34 µg/mL) | 21.1 | – |
| CCCCCCS(=O)(=O)c1cccc(O)c(=O)c1O [compound 699] | 0.2 | 4.39 | 6.83 | 10 (≈ 2.86 µg/mL) | 13.1 | – |
| Cc1cc(O)c(=O)c(O)cc1C(=O)NC(CCCCNC(=O)OC(C)(C)C)C(=O)OC(C)(C)C (centres unmarked) [compound 869] | – | – | – | – | – | log reduction at 5 µM (HSV-1; [8]): -0.147; CC50 at 24 h (in vitro; CC50 (μM), Table 2 amides, MTT): 14.6 ± 3.4 µM; MIC80 [1, 9]: 9 µM (≈ 4.33 µg/mL); IC50 (human RNaseH1; [10]): 602 ± 273 µM |
| Cc1cc(O)c(=O)c(O)cc1C(=O)Nc1ccccc1 [compound 389] | – | – | – | – | – | log reduction at 5 µM (HSV-1; [8]): 0.43; CC50 at 24 h (in vitro; CC50 (μM), Table 2 amides, MTT): 21.2 ± 9.5 µM; CC50 at 24 h (in vitro; CC50): > 20 µM; MIC80 [1, 9]: 5.3 µM (≈ 1.44 µg/mL); IC50 (human RNaseH1; [10]): 78.4 ± 47.2 µM |
| Cc1ccc(CNC(=O)c2cc(O)c(=O)c(O)cc2C)c(C)c1 [compound 809] | – | – | – | – | – | log reduction at 1 µM (HSV-1; Table 2 amides, read-out: HSV-1 suppression 1 μM): 0.0278; log reduction at 5 µM (HSV-1; [8]): 4.69; CC50 at 24 h (in vitro; CC50 (μM), Table 2 amides, MTT): 5.8 ± 6.5 µM; MIC80 [1, 9]: 3.3 µM (≈ 1.03 µg/mL); IC50 (human RNaseH1; [10]): 19.6 ± 20 µM |
| O=c1c(O)cccc(S(=O)(=O)c2ccccc2)c1O [compound 408] | – | 0.56 | 11.1 | 50 (≈ 13.9 µg/mL) | 20.4 | – |
| CSc1ccc(SC)c(O)c(=O)c1O [compound 386] | – | 0.51 | 6.73 | 24 (≈ 5.53 µg/mL) | 68.9 | – |
| CS(=O)(=O)c1cccc(O)c(=O)c1O [compound 387] | – | 0.02 | 0.41 | 50 (≈ 10.8 µg/mL) | – | EC50 (HBV replication; HepDES19, read-out: EC50 against HBV replication): 0.41 µM |
| Cc1cc(O)c(=O)c(O)cc1C(=O)NC(CCC(=O)OC(C)(C)C)C(=O)OC(C)(C)C (centres unmarked) [compound 867] | – | – | – | – | – | log reduction at 5 µM (HSV-1; [8]): 3.49; CC50 at 24 h (in vitro; CC50 (μM), Table 2 amides, MTT): 5.2 ± 1.3 µM; MIC80 [1, 9]: 4.3 µM (≈ 1.88 µg/mL); IC50 (human RNaseH1; [10]): 675 ± 563 µM |
| Cc1ccc(S(=O)(=O)c2cccc(O)c(=O)c2O)cc1 [compound 697] | – | 0.01 | 49.1 | 49 (≈ 14.3 µg/mL) | 35.3 | – |
